Consider 15 molecules from ChEMBL document CHEMBL6109101, “Synthesis and bioactivity of cyclic peptide GG-8-6 analogues as anti-hepatocellular carcinoma agents” (Eur J Med Chem, 2025).

Common to all, as to type: functional, cell-based
Test [1] has as its system MHCC97H. Briefly: Cytotoxicity against human MHCC97H cells assessed as reduction in cell viability at 40 uM measured at 48 hrs by MTT assay. (Tetrazolium dyes change colour on reduction, which living cells bring about.)
In test [2] the test system is MHCC97H. Briefly: Cytotoxicity against human MHCC97H cells assessed as reduction in cell viability up to 40 uM measured at 48 hrs by MTT assay.
Test [3] deals with HCCLM3. Nature of the test: Cytotoxicity against human HCCLM3 cells assessed as cell viability up to 40 uM measured at 12 hrs by MTT assay.
Test [4] relates to HCCLM3. Briefly: Cytotoxicity against human HCCLM3 cells assessed as reduction in cell viability up to 40 uM measured at 48 hrs by MTT assay.
The subject of test [5] is HCCLM3. Briefly: Cytotoxicity against human HCCLM3 cells assessed as reduction in cell viability at 40 uM measured at 48 hrs by MTT assay.
Test [6] deals with MHCC97H. Briefly: Cytotoxicity against human MHCC97H cells assessed as reduction in cell viability at 40 uM measured after 48 hrs by MTT assay.
Test [7] relates to MHCC97H. Nature of the test: Cytotoxicity against human MHCC97H cells assessed as inhibition of cell proliferation incubated for 48 hrs by MTT assay.
Another test has as its system HepG2. Nature of the test: Cytotoxicity against human HepG2 cells assessed as inhibition of cell proliferation incubated for 48 hrs by MTT assay. The settings on record: HepG2, 48 h.
For test [8], the system named is HCCLM3. Briefly: Cytotoxicity against human HCCLM3 cells assessed as cell viability incubated at 12 to 48 hrs hrs by MTT assay. The settings on record: dose <= 40.0 µM, time 12-48 hrs.
The test system of test [9] is HCCLM3. Nature of the test: Cytotoxicity against human HCCLM3 cells assessed as cell viability up to 40 uM measured at 24 to 48 hrs by MTT assay. As to conditions: time 24-48 hrs.
Test [10] has as its system HCCLM3. Nature of the test: Cytotoxicity against human HCCLM3 cells assessed as cell viability up to 40 uM by MTT assay. The settings on record: time 12-48 hrs.
Test [11] relates to HCCLM3. Nature of the test: Cytotoxicity against human HCCLM3 cells assessed as reduction in cell viability at 40 uM measured after 48 hrs by MTT assay.
The test system of test [12] is MHCC97H. Briefly: Cytotoxicity against human MHCC97H cells assessed as cell viability incubated at 12 to 48 hrs hrs by MTT assay. The settings on record: dose <= 40.0 µM, time 12-48 hrs.
In test [13] the test system is MHCC97H. Nature of the test: Cytotoxicity against human MHCC97H cells assessed as cell viability up to 40 uM by MTT assay. As to conditions: time 12-48 hrs.
For test [14], the system named is MHCC97H. Briefly: Cytotoxicity against human MHCC97H cells assessed as cell viability up to 40 uM measured at 12 hrs by MTT assay.
In test [15] the test system is MHCC97H. Nature of the test: Cytotoxicity against human MHCC97H cells assessed as cell viability up to 40 uM measured at 24 to 48 hrs by MTT assay. The settings on record: time 24-48 hrs.
For a further test, the system named is Huh-7. Nature of the test: Cytotoxicity against human Huh-7 cells assessed as inhibition of cell proliferation incubated for 48 hrs by MTT assay. As to conditions: Huh-7, 48 h.
For test [16], the system named is HCCLM3. Briefly: Cytotoxicity against human HCCLM3 cells assessed as inhibition of cell proliferation incubated for 48 hrs by MTT assay. The settings on record: HCCLM3, 48 h.

Calls of active or inactive are those of the source. No cut-off for these calls is given here.

A word on the IC50: it is the concentration that inhibits the measured activity by half. On to `CC[C@@H](C)[C@H]1NC(=O)[C@@H]2CCCN2C(=O)[C@@H](CC(C)C)NC(=O)[C@@H]([C@@H](C)OC(C)(C)C)NC(=O)[C@@H](CCCCNC(=O)OC(C)(C)C)NC(=O)[C@H](C(C)C)NC(=O)[C@H](CC(C)C)NC(=O)[C@H](CC(C)C)NC(=O)[C@H](CC(C)C)NC1=O`, for which the outcome in the test with MHCC97H [1], with MHCC97H [2], with HCCLM3 [3], in the test on HCCLM3 [4], in the test with HCCLM3 [5] and in the test on MHCC97H [6] was Active. The outcome in the test with HCCLM3 [9], in the test with HCCLM3 [11], in the test with MHCC97H [14] and in the test on MHCC97H [15] was Active. In addition, the concentration for half-maximal inhibition (IC50) with MHCC97H [7] is 9.19 µM; in the test with HepG2, above 100 µM; in the test with Huh-7 it was above 100 µM; in the test with HCCLM3 [16] it was 6.57 µM. The Activity entry in the test with HCCLM3 [8] is “Dose-dependent-effect”; with HCCLM3 [10], “Time-dependent-effect”; with MHCC97H [12], “Dose-dependent-effect”; in the test on MHCC97H [13], “Time-dependent-effect”.
Consider `CC[C@@H](C)[C@H]1NC(=O)[C@@H]2CCCN2C(=O)[C@@H](CC(C)C)NC(=O)[C@H](Cc2ccc(OC(C)(C)C)cc2)NC(=O)[C@@H](CC(C)C)NC(=O)[C@H](C(C)C)NC(=O)[C@H](CC(C)C)NC(=O)[C@H](CC(C)C)NC(=O)[C@H](CC(C)C)NC1=O`, for which the IC50 in the test with MHCC97H [7] stood at 4.86 µM; in the test on HepG2, 2.08 µM; with Huh-7, 2.08 µM; in the test with HCCLM3 [16], 2.86 µM.
As for `CC[C@@H](C)[C@H]1NC(=O)[C@@H]2CCCN2C(=O)[C@@H](CC(C)C)NC(=O)[C@@H](Cc2ccccc2)NC(=O)[C@H](CC(C)C)NC(=O)[C@H](C(C)C)NC(=O)[C@H](CC(C)C)NC(=O)[C@H](CC(C)C)NC(=O)[C@H](CC(C)C)NC1=O`, the IC50 in the test on MHCC97H [7], in the test on HepG2, in the test on Huh-7 and in the test with HCCLM3 [16] was above 100 µM in each case.
For the molecule `CC[C@@H](C)[C@H]1NC(=O)[C@@H]2CCCN2C(=O)[C@@H](CC(C)C)NC(=O)[C@@H](COC(C)(C)C)NC(=O)[C@H](CC(C)C)NC(=O)[C@H](C(C)C)NC(=O)[C@H](CC(C)C)NC(=O)[C@H](CC(C)C)NC(=O)[C@H](CC(C)C)NC1=O`, the IC50 in the test with MHCC97H [7], with HepG2, in the test with Huh-7 and in the test on HCCLM3 [16] was above 100 µM throughout.
As for `CC[C@@H](C)[C@H]1NC(=O)[C@@H]2CCCN2C(=O)[C@@H](CC(C)C)NC(=O)[C@H]([C@H](C)OC(C)(C)C)NC(=O)[C@@H](CC(C)C)NC(=O)[C@H](C(C)C)NC(=O)[C@H](CC(C)C)NC(=O)[C@H](CC(C)C)NC(=O)[C@H](CC(C)C)NC1=O`, the IC50 in the test with MHCC97H [7] was found to be 6.05 µM; in the test on HepG2, 3.41 µM; with Huh-7 it was 3.41 µM; in the test with HCCLM3 [16] it was 4.19 µM.
In the case of `CC[C@@H](C)[C@H]1NC(=O)[C@@H]2CCCN2C(=O)[C@@H](CC(C)C)NC(=O)[C@@H](Cc2ccc(OC(C)(C)C)cc2)NC(=O)[C@H](CC(C)C)NC(=O)[C@H](C(C)C)NC(=O)[C@H](CC(C)C)NC(=O)[C@H](CC(C)C)NC(=O)[C@H](CC(C)C)NC1=O`, the IC50 in the test on MHCC97H [7], in the test on HepG2, with Huh-7 and in the test with HCCLM3 [16] was above 100 µM each time.
For the molecule `CC(C)C[C@@H]1NC(=O)[C@H](CC(C)C)NC(=O)[C@@H](CCCCNC(=O)OC(C)(C)C)NC(=O)[C@@H]2CCCN2C(=O)[C@@H](CC(C)C)NC(=O)[C@H](C(C)C)NC(=O)[C@H](CC(C)C)NC(=O)[C@H](C(C)C)NC(=O)[C@H](CC(C)C)NC1=O`, the IC50 with MHCC97H [7] was 2.7 µM; in the test on HepG2 it was above 100 µM; in the test with Huh-7, above 100 µM; in the test on HCCLM3 [16] it was 2.17 µM.
For `CC[C@@H](C)[C@H]1NC(=O)[C@@H]2CCCN2C(=O)[C@@H](CC(C)C)NC(=O)[C@@H]([C@@H](C)OC(C)(C)C)NC(=O)[C@H](CC(C)C)NC(=O)[C@H](C(C)C)NC(=O)[C@H](CC(C)C)NC(=O)[C@H](CC(C)C)NC(=O)[C@H](CC(C)C)NC1=O`, the IC50 with MHCC97H [7], in the test with HepG2, with Huh-7 and in the test with HCCLM3 [16] was above 100 µM in each case.
On to `CC[C@@H](C)[C@H]1NC(=O)[C@@H]2CCCN2C(=O)[C@@H](CC(C)C)NC(=O)[C@H](CCCCNC(=O)OC(C)(C)C)NC(=O)[C@@H](CC(C)C)NC(=O)[C@H](C(C)C)NC(=O)[C@H](CC(C)C)NC(=O)[C@H](CC(C)C)NC(=O)[C@H](CC(C)C)NC1=O`, for which the IC50 with MHCC97H [7], with HepG2, in the test on Huh-7 and in the test with HCCLM3 [16] was above 100 µM each time.
On to `CC(C)C[C@@H]1NC(=O)[C@H](CC(C)C)NC(=O)[C@@H](CCCCNC(=O)OC(C)(C)C)NC(=O)[C@@H]2CCCN2C(=O)[C@@H](CC(C)C)NC(=O)[C@H](Cc2ccc(OC(C)(C)C)cc2)NC(=O)[C@H](CC(C)C)NC(=O)[C@H](C(C)C)NC(=O)[C@H](CC(C)C)NC1=O`, for which the result with MHCC97H [1], in the test with MHCC97H [2], in the test on HCCLM3 [3], with HCCLM3 [4], with HCCLM3 [5] and in the test with MHCC97H [6] was Active. Moreover, the result with HCCLM3 [9], in the test with HCCLM3 [11], in the test with MHCC97H [14] and in the test on MHCC97H [15] was Active. Moreover, the half-inhibitory concentration (IC50) is 3.51 µM in the test with MHCC97H [7], above 100 µM in the test on HepG2, above 100 µM in the test with Huh-7 and 3.26 µM in the test on HCCLM3 [16]. Moreover, the Activity entry in the test with HCCLM3 [8] was “Dose-dependent-effect”; in the test on HCCLM3 [10] it was “Time-dependent-effect”; in the test with MHCC97H [12], “Dose-dependent-effect”; with MHCC97H [13] it was “Time-dependent-effect”.
Turning to `CC(C)C[C@@H]1NC(=O)[C@H](CC(C)C)NC(=O)[C@@H](CCCCNC(=O)OC(C)(C)C)NC(=O)[C@@H]2CCCN2C(=O)[C@@H](CC(C)C)NC(=O)[C@H](COC(C)(C)C)NC(=O)[C@H](CC(C)C)NC(=O)[C@H](C(C)C)NC(=O)[C@H](CC(C)C)NC1=O`, the IC50 with MHCC97H [7] is 10.2 µM; in the test on HepG2, above 100 µM; with Huh-7, above 100 µM; with HCCLM3 [16] it was 10.2 µM.
Consider `CC[C@@H](C)[C@H]1NC(=O)[C@@H]2CCCN2C(=O)[C@@H](CC(C)C)NC(=O)CNC(=O)[C@H](CC(C)C)NC(=O)[C@H](C(C)C)NC(=O)[C@H](CC(C)C)NC(=O)[C@H](CC(C)C)NC(=O)[C@H](CC(C)C)NC1=O`, for which the IC50 in the test on MHCC97H [7], in the test with HepG2, in the test with Huh-7 and with HCCLM3 [16] was above 100 µM each time.
For `CC(C)C[C@@H]1NC(=O)[C@H](CC(C)C)NC(=O)[C@@H](CCCCNC(=O)OC(C)(C)C)NC(=O)[C@@H]2CCCN2C(=O)[C@@H](CC(C)C)NC(=O)[C@H](Cc2ccccc2)NC(=O)[C@H](CC(C)C)NC(=O)[C@H](C(C)C)NC(=O)[C@H](CC(C)C)NC1=O`, the IC50 in the test on MHCC97H [7] is 3.64 µM; with HepG2 it was above 100 µM; in the test on Huh-7 it was above 100 µM; with HCCLM3 [16], 5.23 µM.
For the molecule `CC[C@@H](C)[C@H]1NC(=O)[C@@H]2CCCN2C(=O)[C@@H](CC(C)C)NC(=O)[C@H](COC(C)(C)C)NC(=O)[C@@H](CCCCNC(=O)OC(C)(C)C)NC(=O)[C@H](C(C)C)NC(=O)[C@H](CC(C)C)NC(=O)[C@H](CC(C)C)NC(=O)[C@H](CC(C)C)NC1=O`, the IC50 was 3.04 µM with MHCC97H [7], above 100 µM with HepG2, above 100 µM in the test with Huh-7 and 2.99 µM with HCCLM3 [16].
Regarding `CC[C@@H](C)[C@H]1NC(=O)[C@@H]2CCCN2C(=O)[C@@H](CC(C)C)NC(=O)[C@H](C(C)C)NC(=O)[C@@H](CC(C)C)NC(=O)[C@H](C(C)C)NC(=O)[C@H](CC(C)C)NC(=O)[C@H](CC(C)C)NC(=O)[C@H](CC(C)C)NC1=O`, the IC50 with MHCC97H [7] was 8.18 µM; with HepG2, 12.2 µM; in the test on Huh-7 it was 12.2 µM; with HCCLM3 [16] it was 9.94 µM.
